Results on eight compounds are retold here after paper PMC11173485, “Connecting GSK-3β Inhibitory Activity with IKK-β or ROCK-1 Inhibition to Target Tau Aggregation and Neuroinflammation in Alzheimer’s Disease—Discovery, In Vitro and In Cellulo Activity of Thiazole-Based Inhibitors” (Molecules, 2024).

Each structure is given as a SMILES string. Like-named read-outs stand apart in the source and are kept apart here.

Series [1] has as its system BV-2 (mouse microglial cells). The series can be described thus: Cytotoxicity, PrestoBlue cell viability assay in BV-2 cells. Particulars: for effect on cell viability in BV-2 cells (in words): 0.1, 1, 10, 50, and 100 µM. It is filed as cell-based. The procedure: (§1) We assessed their cytotoxic effects at five concentrations (0.1, 1, 10, 50, and 100 µM) in HT-22 (mouse hippocampal neuronal cells) and BV-2 (mouse microglial cells) cell lines using a fluorometric assay with PrestoBlue™ cell viability reagent (Table 4, Table S2 in the SI).
(§2) Mouse microglial cells (BV-2) were a generous gift from Professor Bozena Kaminska-Kaczmarek of the Laboratory of Molecular Neurobiology, Neurobiology Center, Nencki Institute of Experimental Biology, Polish Academy of Sciences, Warsaw, Poland. Cells were cultured in Dulbecco’s modified Eagle’s Medium-high glucose (DMEM, Glutamx Thermo Fisher, Waltham, MA, USA) supplemented with 10% inactivated fetal bovine serum (Thermo Fisher), 100 IU/mL penicillin (Merck), and 100 µg/mL streptomycin (Merck). Cells were cultured in flasks (area 175 cm^2, Nunc) and incubated at 37 °C, 5% CO2. To evaluate the level of NO, IL-6, and TNF-α and the effectiveness of the compounds tested, BV-2 microglia cells were cultured in 96-well culture plates (5 × 10^4 cells per well, Falcon). For the measurement of cell viability and cell membrane damage, cells were placed in 96-well culture plates (2 × 10^4 cells per well, Falcon). Before the tests, cells were grown for 24 h in the incubator (37 °C, 5% CO2). Mouse Hippocampal Neuronal Cell Line (HT-22) was a generous gift from Dr Bartosz Pomierny of the Department of Biochemical Toxicology, Jagiellonian University Medical College, Krakow, Poland. Cells were cultured in Dulbecco’s modified Eagle’s Medium-high glucose (DMEM, Glutamx Thermo Fisher) supplemented with 10% inactivated fetal bovine serum (Thermo Fisher), 100 IU/mL penicillin (Merck), and 100 µg/mL streptomycin (Merck). Cells were cultured in flasks (area 175 cm^2, Nunc) and incubated at 37 °C, 5% CO2. For the measurement of cell viability and neuroprotective effects against okadaic acid, cells were placed in 96-well culture plates (2 × 10^4 cells per well, Falcon). Before the tests, cells were grown for 24 h in the incubator (37 °C, 5% CO2).
(§3) Cell viability was evaluated using the PrestoBlue reagent (Thermo Fisher), according to the manufacturer’s procedures. Following 24 h of incubation with the tested molecule, PrestoBlue reagent was added to a microplate well in an amount equal to one-tenth of the remaining medium volume. The resulting mixture was incubated for 15 min at 37 °C, and the fluorescence intensity (EX 530; EM 580 nm) was measured using the plate reader POLARstar Omega, (BMG Labtech, Ortenberg, Germany). The results (viability values) are provided as a percentage of live cells with respect to DMSO (control sample).
(§4) Cytotoxic effects of selected inhibitors in HT-22 mouse hippocampal neuronal cells and BV-2 mouse microglial cells
(§5) Table S2. Cytotoxic effects of selected inhibitors in HT-22 mouse hippocampal neuronal cells and BV-2 mouse microglial cells. neurotoxicity in HT-22 cellsa immunotoxicity in BV-2 cellsa […]
(§6) a % of cell viability at the given concentration of tested compound; mean value ± standard deviation (SD) of triplicates; b half maximal inhibitory concentration of the tested compound; mean value ± standard error of the mean (SEM) of triplicates; c data obtained in log C of 39 of -8.5; -7.5; -6.5; -5.5; -5, respectively; d data obtained in log C of 49 of -7.5; -6.5; -5.5; -4.5; -4. respectively; nt, not tested.

Test in series [2]: as above
It is filed as cell-based, mouse. The following applies: mouse, BV-2 microglial cells; for IC50 at 24 h: PrestoBlue, mean ± SEM, read-out: Cytotoxicity in BV-2 Cells (IC50 x¯ ± SEM µM); for viability at 24 h, 1 µM: 1 µM (log C -6); for viability at 24 h, 50 µM: 50 µM (log C -4.3); for viability at 24 h, 100 µM: 100 µM (log C -4). The procedure:
as §1, §2, §3, §4, §5, §6

Series [3] deals with okadaic acid treated HT-22 cells. The series can be described thus: Okadaic-acid-induced tau hyperphosphorylation cell model, cell viability. It is filed as cell-based, mouse. The following applies: okadaic acid 400 nM; for cell viability after okadaic acid (in words): 3 h, viability after 24 h. The procedure:
We evaluated the neuroprotective properties of the selected compounds in an okadaic-acid-induced tau hyperphosphorylation cell model. Okadaic acid, acting as a phosphatase inhibitor, induces hyperphosphorylation and accumulation of neurofilaments in the cells, thereby mirroring the hyperphosphorylated, tau-induced neurodegeneration observed in AD brain [55, 56]. […] Compounds 50 and 58 were not active.
HT-22 cells were seeded into 96-well plates at a density of 2 × 10^4 cells per well. Okadaic acid (Merck) was added at a concentration of 400 nM and incubated for 3 h. After this time, 10, 1, and 0.1 µM of tested compounds were added and incubated in the aseptic conditions (37 °C, 5% CO2). Cell viability was determined using Presto Blue assay after 24 h. All data were normalized to the percentage survival of vehicle control. Data are represented as mean SD versus vehicle control.
(§7) Figure 4 (A) Results of the okadaic-acid-induced hyperphosphorylation assay. The HT-22 cells were pretreated for 3 h with okadaic acid (400 nM), and the tested compounds, at the increasing non-cytotoxic concentrations, were determined using a viability assay (or with the vehicle, 10 µM DMSO in the control sample). Cell viability was measured using the PrestoBlue^TM cell viability reagent. (B–D) Results of anti-inflammatory assays in LPS-treated (100 ng/mL) BV-2 cell line. The final compounds and references were tested at increasing non-cytotoxic concentrations and with DMSO as a control sample. NO release was measured using a fluorometric assay with 2,3-diaminonaphthalene (DAN). The IL-6 and TNF-α levels were measured using an LANCE Ultra TR-FRET Detection Kit (Perkin Elmer). Statistical analysis was performed using GraphPad Prism 9.0.0. All values are expressed as mean with SD. Differences among groups were evaluated using one-way ANOVA followed by post hoc analysis (Dunnett’s multiple comparison tests) and were considered statistically significant if p < 0.05 (* p < 0.05, ** p < 0.01, and **** p < 0.0001).

Series [4] concerns NO release, LPS-treated BV-2 cells. As to the kind of experiment: NO release in LPS-treated BV-2 cells (DAN fluorometric assay). The following applies: 10 µM; LPS 100 ng/mL, 18 h. The class given is cell-based, mouse.
Source text: Lipopolysaccharide (LPS) is a potent pro-inflammatory stimulus triggering the extensive production of inflammatory mediators, including cytokines and chemokines. Consequently, it finds widespread application in inducing in vitro and in vivo models of sepsis and inflammation, including neuroinflammation. In this study, we employed LPS in the BV-2 cell line and assessed the impact of the selected compounds on the levels of NO, IL-6, and TNF-α production (Figure 4B–D). […] Moreover, all compounds surpassed the reference compound in these assays.
The cells were pretreated with tested compounds for 1 h. After this time, lipopolysaccharide (100 ng/mL) was added and the resulting mixture was incubated for 18 h. Next, the culture supernatant was acquired to measure the levels of nitric oxide (NO), IL-6, and TNF-α, according to the following procedures.
The NO level in the culture supernatants was measured using 2,3-diaminonaphthalene (DAN) reagent, according to the method of Nussler et al.. After 15 min of incubation at room temperature, the fluorescence intensity (EX 360; EM 440 nm) was measured using a microplate reader POLARstar Omega, (BMG Labtech). The values of nitric oxide were calculated as a percentage of control (maximal response of LPS).
as §7

The mark [5] stands for this setting: 24 h, read-out: immunotoxicity in BV-2 cells, % of cell viability.
The mark [6] stands for this setting: 10 µM (log C -5), 24 h, read-out: immunotoxicity in BV-2 cells, % of cell viability.

Usually viability stands for a read-out of living cells in per cent, often relative to untreated cells. One may read the IC50 as the concentration needed to halve the response being measured. Take `CC(C)C(=O)Nc1cc(-c2cc3c(s2)C(=O)NC(C)(C)N3)ccn1` [Compound 39, N-(4-(2,2-Dimethyl-4-oxo-1,2,3,4-tetrahydrothieno [3,2-d]pyrimidin-6-yl)pyridin-2-yl)isobutyramide]: the “effect on cell viability in BV-2 cells (in words)” value (shortened to “effect on cell viability”) in series [1] was “decreased cells’ viability”. In addition, in series [2] (log C -5 (footnote c; printed in column 100 µM), read-out: immunotoxicity in BV-2 cells, % of cell viability), the viability at 24 h, 10 µM was found to be 14%. Moreover, in series [2] (log C -5.5 (footnote c; printed in column 50 µM), read-out: immunotoxicity in BV-2 cells, % of cell viability), the viability at 24 h, 3.16 µM was 73%. Also, the viability at 24 h, 0.316 µM in series [2] (log C -6.5 (footnote c; printed in column 10 µM), read-out: immunotoxicity in BV-2 cells, % of cell viability) came out at 105%. For the same compound, in series [2] (24 h), the IC50 at 24 h worked out at 4.5 ± 1.9 µM.

For `CC1(C)NC(=O)c2sc(-c3ccnc(NC(=O)C4CC4)c3)cc2N1` [Compound 40, N-(4-(2,2-Dimethyl-4-oxo-1,2,3,4-tetrahydrothieno [3,2-d]pyrimidin-6-yl)pyridin-2-yl)-cyclopropanecarboxamide], the “effect on cell viability” value in series [1] is “decreased cells’ viability”. Moreover, in series [2] (setting [5]), the viability at 24 h, 1 µM turned out to be 109%; the viability at 24 h, 50 µM came out at 2%; the viability at 24 h, 100 µM was found to be 2%; the viability at 24 h, 0.1 µM came to 106%. Besides, the viability at 24 h, 10 µM in series [2] (setting [6]) stood at 9%. In series [2] (24 h), the IC50 at 24 h worked out at 3.6 ± 0.7 µM.

On to `CC1(C)NC(=O)c2sc(-c3ccnc(NC(=O)C4CCC4)c3)cc2N1` [Compound 41, N-(4-(2,2-Dimethyl-4-oxo-1,2,3,4-tetrahydrothieno [3,2-d]pyrimidin-6-yl)pyridin-2-yl)-cyclobutanecarboxamide], for which the “effect on cell viability” value in series [1] is on record as “decreased cells’ viability”.

For `CC(C)C(=O)Nc1cc(-c2cc(NC(N)=O)c(C(N)=O)s2)ccn1` [Compound 48, 5-(2-Isobutyramidopyridin-4-yl)-3-ureidothiophene-2-carboxamide], the “effect on cell viability” value in series [1] is given as “decreased cells’ viability”. Besides, in series [2] (setting [5]), the viability at 24 h, 1 µM worked out at 97%; the viability at 24 h, 50 µM was 20%; the viability at 24 h, 0.1 µM stood at 103%. Moreover, in series [2] (setting [6]), the viability at 24 h, 10 µM is 66%. For the same compound, the IC50 at 24 h in series [2] (24 h) is 21.8 ± 3.8 µM.

With `NC(=O)Nc1cc(-c2ccnc(NC(=O)C3CC3)c2)sc1C(N)=O` [Compound 49, 5-(2-(Cyclopropanecarboxamido)pyridin-4-yl)-3-ureidothiophene-2-carboxamide], the “cell viability after okadaic acid (in words)” value in series [3] (1 µM compound) is listed as “increased cell viability”. The “cell viability after okadaic acid (in words)” value in series [3] (10 µM compound) was “increased cell viability”. Moreover, the “NO level (in words)” value in series [4] is recorded as “significantly decreased”. Besides, in series [1], the “effect on cell viability” value is “no significant decrease in cell viability” and the “effect on viability of BV-2 cells at concentrations up to 10 µM (in words)” value is recorded as “did not decrease the viability of the cells”. Besides, in series [2] (setting [5]), the viability at 24 h, 100 µM came to 74%. For the same compound, the IC50 at 24 h in series [2] (24 h) is greater than 100 µM.

With `NC(=O)Nc1cc(-c2cccc(NC(=O)C3CC3)c2)sc1C(N)=O` [Compound 58, 5-(3-(Cyclopropanecarboxamido)phenyl)-3-ureidothiophene-2-carboxamide], in series [3] (10, 1, and 0.1 µM), the “activity in okadaic-acid-induced hyperphosphorylation assay (in words)” value is “not active”. In series [1], the “effect on cell viability” value is reported as “decreased cells’ viability” and the “effect on viability of BV-2 cells at concentrations up to 10 µM (in words)” value is “did not decrease the viability of the cells”. In series [2] (setting [5]), the viability at 24 h, 1 µM is 107%; the viability at 24 h, 50 µM worked out at 52%; the viability at 24 h, 100 µM was found to be 13%; the viability at 24 h, 0.1 µM is 106%. For the same compound, in series [2] (setting [6]), the viability at 24 h, 10 µM stood at 97%. For the same compound, in series [2] (24 h), the half-maximal inhibitory concentration (IC50) at 24 h amounted to 51.4 ± 0.8 µM.

Consider `O=C1NC2(CCCC2)Nc2cc(-c3ccnc(NC(=O)C4CC4)c3)sc21` [Compound 60, N-(4-(4’-Oxo-3’,4’-dihydro-1’H-spiro[cyclopentane-1,2’-thieno [3,2-d]pyrimidin]-6’-yl)pyridin-2-yl)cyclopropanecarboxamide], for which the “effect on cell viability” value in series [1] is “decreased cells’ viability”. Moreover, in series [2] (setting [5]), the viability at 24 h, 1 µM was 101%; the viability at 24 h, 50 µM came to 3%; the viability at 24 h, 100 µM was 3%; the viability at 24 h, 0.1 µM came to 108%. Also, the viability at 24 h, 10 µM in series [2] (setting [6]) amounted to 9%. Also, the IC50 at 24 h in series [2] (24 h) stood at 3 µM.

On to `COc1nc(-c2ccnc(NC(=O)C3CC3)c2)sc1C(N)=O` [II, reference compound], for which the “effect on cell viability” value in series [1] is reported as “decreased cells’ viability”. Further, in series [2] (setting [5]), the viability at 24 h, 1 µM is 102%; the viability at 24 h, 50 µM was 27%; the viability at 24 h, 100 µM is 4%; the viability at 24 h, 0.1 µM was determined as 97%. For the same compound, the viability at 24 h, 10 µM in series [2] (setting [6]) is 60%. For the same compound, in series [2] (24 h), the IC50 at 24 h was 15.4 ± 0.6 µM.
